Experimental data published in patent US11351151B2, “Compound having anticancer activity and preparation method and application” (3D Medicines (Beijing) Co., Ltd., priority 2016, dated 2022).

Legend:
Assay in all cases: Cell proliferation assay (Alamar Blue)
Type in all cases: cell-based
SNU387 = settings: Homo sapiens, SNU-387, 144 h; SNU387 liver cancer cell line; 6 days
Protocol: (§1) 1. Instruments and Materials • Thermo 311 CO2 incubator; Haier biosafety cabinet; Molecular Devices microplate reader; Xiangyi brand L530 desktop low speed centrifuge; Olympus IX51 inverted fluorescence microscope, DMEM, RPMI 1640, MEM, DMEM/F12 1:1 medium, Fetal bovine serum, 0.25% trypsin solution, phosphate buffer (Thermo Fisher Shanghai Co., Ltd.); sigma dimethyl sulfoxide (DMSO), resazurin; 54 commercial tumor cell lines (including 26 liver cancer cell lines). Experimental drugs: compounds 1-12 and active drug Linifanib; chemotherapeutic drug Doxorubicin (HY-15142; Shanghai Qianyuan Biomedical Technology Co., Ltd.).
(§2) 2. Experimental Methods • 2.1 Cultivation of different cell lines • 54 cell lines were cultured in a culture medium containing fetal bovine serum and placed in a 5% CO 2 incubator at 37° C. for incubation. The cells were all grown in an adherent state, and the growth was observed under an inverted microscope, and subculture was performed when the cell confluence rate reached 80%-90%. The proportion and quantity of passage were determined by experimental needs. The ratio of subculture of this cell line was generally 1:2^˜1:3. • 2.2 inhibition effect on the proliferation of different tumor cell lines • Cell test: 54 cell lines in logarithmic growth phase were inoculated in 96-well culture plates at 500^˜1×10^4/well (the optimal seeding density of each cell line was determined in pre-experiment), After incubating at 37° C. for 4 h in a 5% CO2 humidification incubator, added 10 μL of compounds 1-12 or Linifanib to each well, and tested 9 drug concentration gradients for each compound (diluted from the highest concentration of the test by 3.16 times). The solubility of each compound was different at a starting concentration of 30 or 100 μM, respectively. The QC reference compound Doxorubicin was added simultaneously to each cell line test, and the final drug concentrations were 10, 3.16, 1, 0.31, 0.1, 0.03, 0.01, 0.003, and 0.001 μM, respectively. In addition, a positive control group (100% inhibition) and a negative control group (0% inhibition) were set at the same time. The drug group was repeated for 2 wells per concentration, and the positive control group and the negative control group were repeated for 6 wells. After the culture was continued for 6 days in the incubator, AlamarBlue test operation was followed; • AlamarBlue test procedure: Incubated with 10 μL of AlamarBlue reagent per well for 1-4 h, shook for 1-2 min, MD microplate reader EX: 560 nm, EM: 590 nm wavelength to measure fluorescence, recorded the results, calculated the cell inhibition rate of the compound of the invention. Cell inhibition rate (%)=(A0% inhibition−A administration)/(A0% inhibition−A100% inhibition)×100%, and then using the method of nonlinear regression using Graph Pad Prism 5.0 or MATILAB software (usually using four parameters) to graph and obtain a drug dose response curve to obtain an IC50 value of the compound of the present invention acting on a cancer cell line.

HT1080 = settings: Homo sapiens, HT-1080, 144 h; HT1080 tumor cell line; 6 days
Protocol: as §1, §2

HT55 = settings: Homo sapiens, 144 h; HT55 tumor cell line; 6 days
Protocol: as §1, §2

Li-7 = settings: 144 h; Li-7 liver cancer cell line; 6 days
Protocol: as §1, §2

JHH6 = settings: 144 h; JHH6 liver cancer cell line; 6 days
Protocol: as §1, §2

HLE = settings: Homo sapiens, 144 h; HLE liver cancer cell line; 6 days
Protocol: as §1, §2

Alexander cells = settings: 144 h, liver cancer cell line, 6 days
Protocol: as §1, §2

LNCAP-clone-FGC = settings: Homo sapiens, 144 h; LNCAP-clone-FGC tumor cell line; 6 days
Protocol: as §1, §2

MDA-MB-435S = settings: Homo sapiens, 144 h; MDA-MB-435S tumor cell line; 6 days
Protocol: as §1, §2

SNU761 = settings: 144 h; SNU761 liver cancer cell line; 6 days
Protocol: as §1, §2

HUH7 = settings: Homo sapiens, Huh-7, 144 h; HUH7 liver cancer cell line; 6 days
Protocol: as §1, §2

DU145 = settings: Homo sapiens, DU-145, 144 h; DU145 tumor cell line; 6 days
Protocol: as §1, §2

HUH6 = settings: Homo sapiens, HuH-6, 144 h; HUH6 liver cancer cell line; 6 days
Protocol: as §1, §2

KM12 = settings: Homo sapiens, 144 h; KM12 tumor cell line; 6 days
Protocol: as §1, §2

AN3CA = settings: for IC50: Homo sapiens, AN3-CA, 144 h, AN3CA (endometrial cells), 6 days
Protocol: as §1, §2

CCRF-CEM = settings: Homo sapiens, 144 h; CCRF-CEM tumor cell line; 6 days
Protocol: as §1, §2

JHH2 = settings: JHH-2, 144 h; JHH2 liver cancer cell line; 6 days
Protocol: as §1, §2

T.T = settings: Homo sapiens, TT, 144 h; T.T tumor cell line; 6 days
Protocol: as §1, §2

SNU398 = settings: Homo sapiens, SNU-398, 144 h; SNU398 liver cancer cell line; 6 days
Protocol: as §1, §2

K562 = settings: Homo sapiens, 144 h; K562 tumor cell line; 6 days
Protocol: as §1, §2

NCl-H1703 = settings: for IC50: 144 h, NCl-H1703 (lung cancer cells), 6 days
Protocol: as §1, §2

JHH4 = settings: JHH-4, 144 h; JHH4 liver cancer cell line; 6 days
Protocol: as §1, §2

HLF = settings: 144 h; HLF liver cancer cell line; 6 days
Protocol: as §1, §2

NCl-H661 = settings: 144 h; NCl-H661 tumor cell line; 6 days
Protocol: as §1, §2

SMILES	IC50 (SNU387)	IC50 (HT1080)	IC50 (HT55)	IC50 (Li-7)	IC50 (JHH6)	IC50 (HLE)	IC50 (Alexander cells)	IC50 (LNCAP-clone-FGC)	IC50 (MDA-MB-435S)	IC50 (SNU761)	IC50 (HUH7)	IC50 (DU145)	IC50 (HUH6)	IC50 (KM12)	IC50 (AN3CA)	IC50 (CCRF-CEM)	IC50 (JHH2)	IC50 (T.T)	IC50 (SNU398)	IC50 (K562)	also measured
Cc1ccc(F)c(NC(=O)Nc2ccc(-c3cccc4c3c(N)nn4C(=O)CCCCCCCCCCCNC(=O)C[C@H](N)C(=O)N[C@@H](CCC(=O)O)C(=O)O)cc2)c1 [Compound 7]	> 100 µM	> 100 µM	> 100 µM	34.5 µM	23.6 µM	36.3 µM	98 µM	26.7 µM	> 100 µM	> 100 µM	22.1 µM	17.2 µM	> 100 µM	7.72 µM	2.94 µM	15 µM	> 100 µM	> 100 µM	18.1 µM	23.9 µM	IC50 (NCl-H1703): 0.18 µM; IC50 (JHH4): 39.4 µM; IC50 (HLF): 24.4 µM; IC50 (NCl-H661): 86.7 µM
Cc1ccc(F)c(NC(=O)Nc2ccc(-c3cccc4c3c(N)nn4C(=O)CCCCCCCCCCCNC(=O)C[C@H](N)C(=O)N[C@@H](CCC(=O)N[C@@H](CCC(=O)N[C@@H](CCC(=O)N[C@@H](CCC(=O)O)C(=O)O)C(=O)O)C(=O)O)C(=O)O)cc2)c1 [Compound 8]	90.2 µM	45.3 µM	> 100 µM	39.6 µM	41.7 µM	36.8 µM	> 100 µM	> 100 µM	38.5 µM	80.1 µM	23.6 µM	20.7 µM	28.2 µM	12.4 µM	3.14 µM	> 100 µM	> 100 µM	> 100 µM	50.1 µM	> 100 µM	difference of IC50 value versus Linifanib (AN3CA; AN3-CA (endometrial cells)): 16.7 times; IC50 (NCl-H1703): 0.08 µM; difference of IC50 value versus Linifanib (NCl-H1703; NCI-H1703 (lung cancer cells)): 4 times; IC50 (JHH4): 95.9 µM; IC50 (HLF): 44.6 µM; IC50 (NCl-H661): > 100 µM
Cc1ccc(F)c(NC(=O)Nc2ccc(-c3cccc4c3c(N)nn4C(=O)CCCCCCCCCCCNC(=O)C[C@H](N)C(=O)N[C@@H](CCC(=O)N[C@@H](CCC(=O)N[C@@H](CCC(=O)N[C@@H](CCC(=O)N[C@@H](CCC(=O)N[C@@H](CCC(=O)N[C@@H](CCC(=O)N[C@@H](CCC(=O)N[C@@H](CCC(=O)O)C(=O)O)C(=O)O)C(=O)O)C(=O)O)C(=O)O)C(=O)O)C(=O)O)C(=O)O)C(=O)O)cc2)c1 [Compound 9]	> 100 µM	> 100 µM	> 100 µM	49.3 µM	65.3 µM	53.3 µM	> 100 µM	> 100 µM	> 100 µM	> 100 µM	30.3 µM	34.5 µM	50.3 µM	21.8 µM	8.42 µM	30.2 µM	> 100 µM	> 100 µM	82.7 µM	> 100 µM	IC50 (NCl-H1703): 0.33 µM; IC50 (JHH4): > 100 µM; IC50 (HLF): 63.4 µM; IC50 (NCl-H661): > 100 µM
Cc1ccc(F)c(NC(=O)Nc2ccc(-c3cccc4c3c(N)nn4C(=O)C[C@H](N)C(=O)O)cc2)c1 [Compound 10]	10.5 µM	8.82 µM	14.9 µM	4.38 µM	2.46 µM	1.26 µM	5.31 µM	5.13 µM	13.3 µM	9.04 µM	2.89 µM	1.34 µM	0.15 µM	1.47 µM	0.24 µM	1.74 µM	25.1 µM	4.37 µM	2.99 µM	3.04 µM	IC50 (NCl-H1703): 0.021 µM; IC50 (JHH4): 2.31 µM; IC50 (HLF): 3.87 µM; IC50 (NCl-H661): 5.47 µM
Cc1ccc(F)c(NC(=O)Nc2ccc(-c3cccc4c3c(N)nn4C(=O)CCCCCNC(=O)C[C@H](N)C(=O)O)cc2)c1 [Compound 11]	> 100 µM	94.4 µM	> 100 µM	35.1 µM	54.4 µM	55.2 µM	79.5 µM	70.9 µM	87.6 µM	77 µM	42.2 µM	26.4 µM	46.4 µM	28.5 µM	20.2 µM	40.7 µM	93.5 µM	> 100 µM	79 µM	33.4 µM	IC50 (NCl-H1703): 0.89 µM; IC50 (JHH4): 38.7 µM; IC50 (HLF): 49.4 µM; IC50 (NCl-H661): > 100 µM
Cc1ccc(F)c(NC(=O)Nc2ccc(-c3cccc4c3c(N)nn4C(=O)CCCCCCCCCCCNC(=O)C[C@H](N)C(=O)O)cc2)c1 [Compound 12]	30.3 µM	> 30 µM	> 30 µM	> 30 µM	> 30 µM	> 30 µM	> 30 µM	> 30 µM	> 30 µM	> 30 µM	> 30 µM	> 30 µM	10.6 µM	> 30 µM	2.08 µM	> 30 µM	> 30 µM	> 30 µM	> 30 µM	> 30 µM	IC50 (NCl-H1703): 0.05 µM; IC50 (JHH4): > 30 µM; IC50 (HLF): > 30 µM; IC50 (NCl-H661): > 30 µM
Cc1ccc(F)c(NC(=O)Nc2ccc(-c3cccc4[nH]nc(N)c34)cc2)c1 [Linifanib, reference compound]	12.3 µM	6.4 µM	22.3 µM	5.43 µM	4.11 µM	3.93 µM	4.09 µM	11.3 µM	10.7 µM	8.98 µM	1.67 µM	5.01 µM	> 30 µM	1.39 µM	0.19 µM	5.03 µM	29.5 µM	4.86 µM	1.91 µM	10.8 µM	IC50 (NCl-H1703): 0.02 µM; IC50 (JHH4): 10.6 µM; IC50 (HLF): 3.65 µM; IC50 (NCl-H661): 13.3 µM
